Patent US20260167614A1, “IDENTIFICATION OF SMALL MOLECULES THAT RECRUIT AND ACTIVATE RNASE L” (UNIVERSITY OF FLORIDA RESEARCH FOUNDATION, INCORPORATED, priority 2022, published 2026)

Columns and labels:
pre-miR-21 [1] = assay: In vitro C-Chem-CLIP; type: binding; details: 32P-labeled pre-miR-21; 8 at 5 μM; 7 at 1, 5, 20 or 100 μM
Protocol: Direct target occupancy was further verified using C-Chem-CLIP. In this assay, the RNA-binding module was conjugated to a diazirine cross-linking module and an alkyne handle for purification, affording Chem-CLIP probe 8 (FIG. 8A).^18 Radioactively labeled pre-miR-21 was incubated with a constant concentration of 8 and increasing amounts of 7. After cross-linking by irradiation with UV light, the amount of pre-miR-21 pulled down by 8 was measured by its radioactive signal. If the two compounds (7 and 8) share the same binding site, the amount of pre-miR-21 in the pulled down fraction is depleted.
In Vitro C-Chem-CLIP. Growth medium (RPMI 1640 medium supplemented with 300 mg/L Lglutamine & 25 mM HEPES; Corning, catalog #10-041-CV)] was inactivated by heating to 95° C. for 10 min followed by slowly cooling to room temperature. […]
Copper-catalyzed click chemistry^10 was used to click the probes in each sample to biotinazide (1265-5, Click Chemistry Tools). […] Radioactive signal from both the bound RNA on the magnetic beads and the unbound RNA in the wash solutions were measured using a Beckman […] Coulter LS6500 Liquid Scintillation Counter. The percentage pulldown by Chem-CLIP probe was calculated according to equation 2: […]

mature miR-21 = assay: RT-qPCR of mature miR-21 in CRISPR-Control sgRNA MDA-MB-231 cells; type: cell-based; details: 5 μM, 48 h treatment, RNase L expressed
Protocol: Two CRISPR-modified MDA-MB-231 cell lines with either a scrambled control guide RNA (“Control sgRNA”; RNase L is expressed) or with an RNase L-targeting guide RNA (“RNase L-Targeting sgRNA”; RNase L protein abundance is knocked down) were used to complete these studies.
MDA-MB-231 cells were treated with compound (0.1% DMSO final concentration) for 24 h, followed by removal of the compound-containing medium and redosing in growth medium for an additional 24 h (total treatment period of 48 h), with the exception of invasion assays in which the cells were treated overnight. For the time-course experiment, MDA-MB-231 cells were treated for the indicated lengths of time. MCF-10A cells, also used in invasion assays, were treated with compound overnight (0.1% DMSO final concentration).
RNA Isolation and Quantitative Real-Time Polymerase Chain Reaction (RT-qPCR). MDAMB-231 cells were cultured as described in “Cell Culture.” After compound treatment, total RNA was extracted using a Quick-RNA Miniprep Kit (Zymo) per the manufacturer's instructions. […] RT-qPCR was performed on a QuantStudio5™ Real-Time PCR Instrument (Applied Biosystems) using Power SYBR Green Master Mix (Applied Biosystems), and the resulting data were analyzed using the ΔΔCt method.

pre-miR-21 [2] = assay: Binding affinity measurement by intrinsic fluorescence; details: WT pre-miR-21
Protocol: Binding Affinity Measurements. Binding assays were completed as previously described.8 Briefly, WT pre-miR-21 (5′-[…]-3′) or a mutant pre-miR-21 with the A-bulge and U-bulges replaced with base pairs (5′-[…]-3′) was folded in 1× Assay Buffer (8 mM Na2HPO4, pH 7.0, 185 mM NaCl, and 1 mM EDTA) by heating at 95° C. for 1 min followed by cooling on ice for 10 min. After cooling, BSA was added to a final concentration of 40 μg/mL. RiboTAC 7 was then added to the solution to a final concentration of 0.5 μM. The RNA solution was serial diluted with 1× Assay Buffer supplemented with 40 μg/mL BSA and 0.5 μM of 7. The solutions were incubated in the dark for 30 min at room temperature before being transferred to a black 384-well plate (Corning 4514, low-volume, non-binding) Fluorescence intensity was measured using a Tecan infinite M1000 Pro (Gain: 100) with excitation wavelength of 380 nm and emission wavelength of 425 nm. Binding affinity was calculated using Equation 1, as previously described:8
where I and I0 are the measured fluorescence intensity of compound with or without RNA, respectively, Δε is the difference between the fluorescence intensity with infinite concentration of RNA versus without RNA, [FL]0 and [RNA]0 are the concentrations of small molecule and RNA, respectively, and Kd is the dissociation constant.

CNC(=O)[C@H](c1ccccc1)N(C)Cc1ccc(-c2cccc(-c3sccc3NC(=O)CCOCCOCCOCCC(=O)NCCN3CCN(c4ccc5nc(-c6c(N)c7c(F)cccc7[nH]c6=O)[nH]c5c4)CC3)c2)cc1 [RiboTAC 7, (S)—N-(2-(4-(2-(4-amino-5-fluoro-2-oxo-1,2-dihydroquinolin-3-yl)-1H-benzo[d]imidazol-6-yl)piperazin-1-yl)ethyl)-3-(2-(2-(3-((2-(4′-((methyl(2-(methylamino)-2-oxo-1-phenylethyl)amino)methyl)-[1,1′-biphenyl]-3-yl)thiophen-3-yl)amino)-3-oxopropoxy)ethoxy)ethoxy)propanamide]
amount of pre-miR-21 cross-linked to Chem-CLIP probe 8 in competition (pre-miR-21 [1]): dose-dependently reduced the amount of pre-miR-21 cross-linked to 8 | reduction of mature miR-21 abundance (mature miR-21): ~40% | Kd (pre-miR-21 [2]): 4.6 ± 2.1 µM
